Type in all cases: biochemical
The target of assay [1] is T1, FXa (Homo sapiens, UniProt P00742).
T1 construct: purchased Coachrom
In words: Michaelis-Menten kinetics of substrate with FXa (luciferase luminescence). Conditions: FXa concentration 1.6 nM. As to the method:
Michaelis-Menten kinetics were determined for the enzyme FXa and its substrate MePEG2-IEGR (the TFA salt was used in these examples). The following composition was prepared in a microvial on ice:
160 μL Tris buffered saline (TBS) 50 mM Tris-HCI, 150 mM NaCI (pH 7.4)
4 μL ATP (final concentration 333 μM)
4 μL MgC2 (final concentration 8.3 mM)
12 μL Luciferase (final concentration 0.9 mg/ml)
Substrate compositions 2a-g:
Microvials were prepared with 30 μL substrate concentrations leading to final concentrations of 2000, 1333, 1000, 666, 333, 167 and 66 μM.
FXa (Coachrom, 16 nM) composition was prepared in a microvial on ice
Subsequently, the following compositions were added together in a white 384-well plate:
Subsequently the well plate was placed in a 37 ° C. thermostated Flexstation 3 (Molecular Devices). Luminescence emission wavelength was with an integration time of 1500 ms, measured for 1s every 30 s during 30 min.

For assay [2], the target named is T1, FXa. Description: Cross reactivity assay, FXa. Conditions: compared with thrombin, plasmin, tPA, FXlla. The procedure:
(§1) To determine cross-reactivity an assay was performed using a range of coagulation enzymes at representative concentrations in human plasma. […] For tissue-type plasminogen activator (tPA) this is the conventional concentration for facilitation of fibrinolysis. A concentration of 80 nm FXa yielded a signal of 1.000.000 RLU.

For another assay, the target named is T2, thrombin (Homo sapiens, UniProt P00734).
T2 construct: FXa acts by cleaving prothrombin, yielding active thrombin
In words: Cross reactivity assay, thrombin. The note with it: 52 nM thrombin. As to the method:
as §1

The target of another assay is plasmin (Homo sapiens, UniProt P00747). In words: Cross reactivity assay, plasmin. Conditions: 8 nM plasmin. The procedure: as §1
Assay [3] concerns the target tissue-type plasminogen activator (tPA) (Homo sapiens, UniProt P00750). In words: Cross reactivity assay, tPA. Conditions: 193 IU/mL tPA. The procedure:
as §1

The target in the next assay is T3, FXlla (Homo sapiens, UniProt P00748).
T3 construct: initiated by addition of active coagulation factors such as FXlla, FXla, or FIXa
T3 sequence (P00748 373-615 limits assumed): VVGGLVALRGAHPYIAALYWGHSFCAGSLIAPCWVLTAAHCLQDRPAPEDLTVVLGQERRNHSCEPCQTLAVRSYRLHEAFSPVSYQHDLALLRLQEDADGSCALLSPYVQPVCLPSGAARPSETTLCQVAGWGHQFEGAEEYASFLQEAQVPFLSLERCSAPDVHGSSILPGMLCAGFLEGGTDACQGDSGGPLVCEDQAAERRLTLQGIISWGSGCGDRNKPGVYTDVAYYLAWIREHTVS
Description: Cross reactivity assay, FXIIa. Conditions: 145 nM FXlla. The procedure: as §1

Where a SMILES comes first, the peptide text is derived from it. The star is where a group is joined. X1 = O=C(O)[C@H]1CSC(c2nc3ccc(N*)cc3s2)=N1; Decanoyl(3,6,9-trioxa) = COCCOCCOCC(=O)*

T1 sequence (P00742 235-488 limits assumed): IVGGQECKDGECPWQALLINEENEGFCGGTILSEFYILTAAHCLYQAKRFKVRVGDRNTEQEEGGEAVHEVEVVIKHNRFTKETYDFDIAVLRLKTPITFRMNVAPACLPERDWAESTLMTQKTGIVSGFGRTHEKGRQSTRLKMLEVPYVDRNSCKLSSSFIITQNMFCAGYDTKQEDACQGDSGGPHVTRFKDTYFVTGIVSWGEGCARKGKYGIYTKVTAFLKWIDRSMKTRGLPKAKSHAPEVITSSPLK
T1 sequence (P00742 41-179 partner limits assumed): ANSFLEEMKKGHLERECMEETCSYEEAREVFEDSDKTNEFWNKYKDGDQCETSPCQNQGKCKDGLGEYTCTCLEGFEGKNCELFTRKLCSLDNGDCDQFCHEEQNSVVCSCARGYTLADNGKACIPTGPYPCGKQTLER
plasmin, sequence (P00747 581-810 limits assumed): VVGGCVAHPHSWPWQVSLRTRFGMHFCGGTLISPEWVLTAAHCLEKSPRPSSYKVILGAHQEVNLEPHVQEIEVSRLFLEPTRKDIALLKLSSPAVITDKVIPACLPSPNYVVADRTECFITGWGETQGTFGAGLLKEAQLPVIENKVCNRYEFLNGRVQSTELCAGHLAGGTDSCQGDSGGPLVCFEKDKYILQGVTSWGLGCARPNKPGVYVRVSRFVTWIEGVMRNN
plasmin, sequence (P00747 97-580 partner limits assumed): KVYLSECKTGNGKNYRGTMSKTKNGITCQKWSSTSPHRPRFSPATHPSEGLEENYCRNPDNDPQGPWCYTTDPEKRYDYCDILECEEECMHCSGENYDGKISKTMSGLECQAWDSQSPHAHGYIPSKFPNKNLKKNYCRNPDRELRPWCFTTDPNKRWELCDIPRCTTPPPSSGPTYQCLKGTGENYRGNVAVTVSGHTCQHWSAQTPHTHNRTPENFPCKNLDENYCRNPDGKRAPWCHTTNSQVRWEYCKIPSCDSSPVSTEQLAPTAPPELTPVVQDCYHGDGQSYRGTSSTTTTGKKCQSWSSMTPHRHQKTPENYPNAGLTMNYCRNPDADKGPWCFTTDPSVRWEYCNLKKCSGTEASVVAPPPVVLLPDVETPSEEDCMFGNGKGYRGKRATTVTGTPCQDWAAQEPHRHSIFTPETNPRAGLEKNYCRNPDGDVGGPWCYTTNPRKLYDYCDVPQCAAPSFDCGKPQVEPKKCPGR
tissue-type plasminogen activator (tPA), sequence (P00750 36-562): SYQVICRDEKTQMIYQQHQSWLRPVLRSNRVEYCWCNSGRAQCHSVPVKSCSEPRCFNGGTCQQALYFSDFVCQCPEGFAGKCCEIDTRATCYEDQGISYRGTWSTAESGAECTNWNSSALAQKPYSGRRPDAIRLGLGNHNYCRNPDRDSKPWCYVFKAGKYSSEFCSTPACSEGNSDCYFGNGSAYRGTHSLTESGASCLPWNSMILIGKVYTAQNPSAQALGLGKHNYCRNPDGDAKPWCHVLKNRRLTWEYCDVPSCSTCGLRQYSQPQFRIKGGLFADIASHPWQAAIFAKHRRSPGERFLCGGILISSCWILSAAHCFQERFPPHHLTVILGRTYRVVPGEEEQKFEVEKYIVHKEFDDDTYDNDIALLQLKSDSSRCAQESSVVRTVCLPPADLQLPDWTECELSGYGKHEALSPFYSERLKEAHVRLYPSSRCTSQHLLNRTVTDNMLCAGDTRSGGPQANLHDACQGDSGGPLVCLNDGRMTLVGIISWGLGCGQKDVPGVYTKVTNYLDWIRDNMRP

Consider `CC[C@H](C)[C@H](NC(=O)COCCOCCOC)C(=O)N[C@@H](CCC(=O)O)C(=O)NCC(=O)N[C@@H](CCCNC(=N)N)C(=O)Nc1ccc2nc(C3=N[C@@H](C(=O)O)CS3)sc2c1` [MePEG2-IEGR] ({Decanoyl(3,6,9-trioxa)}-IEGR-X1), for which the “Kcat=Vmax/[FXa]” value on FXa [1] was 1.05e+14 s⁻¹. On FXa [1] (37 °C), the Km (commonly the concentration of substrate that gives half-maximal velocity) came out at 619 µM. For the same compound, the Vmax on FXa [1] (37 °C, luciferase/ATP/Mg readout) came to 468000 RLU. Moreover, at FXa [2], the “cross-reactivity with serine proteases other than FXa” value was “minimal cross-reactivity”. The luminescent signal at thrombin was about 30.000 RLU; on plasmin it was about 8.000 RLU; in assay [3] it was about 6.000 RLU; on FXlla it was about 500 RLU.

For the origin of these results see patent US20210371461A1, “Novel chemiluminescent substrates for Factor Xa” (Enzyre B.V., priority 2018, published 2021).
